Like-named read-outs stand apart in the source and are kept apart here.
Assays:
Assay type in all cases: in vivo
[1] = test system: barnyardgrass (Echinochloa crus-galli); assay: Test B pre-/postemergence plant response; settings: for pest or weed control at 31 g/ha: 31 g ai/ha
Outline: (§1)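 Greenhouse pots, loam/sand soil; compound formulated with surfactant in non-phytotoxic solvent. Preemergence soil spray and postemergence spray at 1–2 leaf stage run simultaneously. Visual injury, 0–100, about 10 days post-treatment.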

[2] = test system: corn (Zea mays); assay: Test B pre-/postemergence plant response; settings: Zea mays, post-emergence, 240 h
Outline: as §1

[3] = test system: giant foxtail (Setaria faberii); assay: Test B pre-/postemergence plant response; settings: for pest or weed control at 31 g/ha: 31 g ai/ha
Outline: as §1

[4] = test system: pigweed (Amaranthus retroflexus); assay: Test B pre-/postemergence plant response; settings: for pest or weed control at 31 g/ha: 31 g ai/ha
Outline: as §1

[5] = test system: wheat (Triticum aestivum); assay: Test B pre-/postemergence plant response; settings: Triticum aestivum, post-emergence, 240 h, read-out: Plant response rating, Wheat
Outline: as §1

[6] = test system: barnyardgrass (Echinochloa crus-galli); assay: Test D pre-/postemergence plant response; settings: Echinochloa crus-galli; for pest or weed control at 16 g/ha: 16 g ai/ha; for pest or weed control at 31 g/ha: 31 g ai/ha; for pest or weed control at 62 g/ha: 62 g ai/ha; for pest or weed control at 125 g/ha: 125 g ai/ha
Outline: (§2)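 Preemergence: seeds in loam/sand blend treated with test chemicals in non-phytotoxic solvent with surfactant; postemergence: plants at 2–18 cm (1- to 4-leaf stage) in peat-based medium sprayed likewise. Greenhouse 13 to 15 days, then visual rating vs controls, 0 (no effect) to 100 (complete control).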

[7] = test system: blackgrass (Alopecurus myosuroides); assay: Test D pre-/postemergence plant response; settings: Alopecurus myosuroides; for pest or weed control at 16 g/ha: 16 g ai/ha; for pest or weed control at 31 g/ha: 31 g ai/ha; for pest or weed control at 62 g/ha: 62 g ai/ha; for pest or weed control at 125 g/ha: 125 g ai/ha
Outline: as §2

[8] = test system: giant foxtail (Setaria faberii); assay: Test D pre-/postemergence plant response; settings: Setaria faberi; for pest or weed control at 16 g/ha: 16 g ai/ha; for pest or weed control at 31 g/ha: 31 g ai/ha; for pest or weed control at 62 g/ha: 62 g ai/ha; for pest or weed control at 125 g/ha: 125 g ai/ha
Outline: as §2

[9] = test system: johnsongrass (Sorghum halepense); assay: Test D pre-/postemergence plant response; settings: Sorghum halepense; for pest or weed control at 31 g/ha: 31 g ai/ha; for pest or weed control at 62 g/ha: 62 g ai/ha; for pest or weed control at 125 g/ha: 125 g ai/ha
Outline: as §2

[10] = Preemergence, 125 g ai/ha, 0 to 100 scale (0 no effect, 100 complete control)
[11] = 125 g ai/ha, postemergence, 0 to 100 scale, 0 no effect, 100 complete control
[12] = Postemergence, 31 g ai/ha, 0 to 100 scale (0 no effect, 100 complete control)
[13] = post-emergence, Postemergence, scale 0 to 100 (0 no effect, 100 complete control), read-out: Barnyardgrass plant response rating
[14] = post-emergence, Postemergence, scale 0 to 100, 0 no effect, 100 complete control, read-out: Plant response rating, Barnyardgrass
[15] = pre-emergence, Preemergence, scale 0 to 100 (0 no effect, 100 complete control), read-out: Plant response rating, Barnyardgrass
[16] = post-emergence, Postemergence, scale 0 to 100 (0 no effect, 100 complete control), read-out: Blackgrass plant response rating
[17] = post-emergence, Postemergence, scale 0 to 100, 0 no effect, 100 complete control, read-out: Plant response rating, Blackgrass
[18] = pre-emergence, Preemergence, scale 0 to 100 (0 no effect, 100 complete control), read-out: Plant response rating, Blackgrass
[19] = post-emergence, Postemergence, scale 0 to 100 (0 no effect, 100 complete control), read-out: Foxtail, Giant plant response rating
[20] = post-emergence, Postemergence, scale 0 to 100, 0 no effect, 100 complete control, read-out: Plant response rating, Foxtail, Giant
[21] = pre-emergence, Preemergence, scale 0 to 100 (0 no effect, 100 complete control), read-out: Plant response rating, Foxtail, Giant
[22] = post-emergence, Postemergence, scale 0 to 100, 0 no effect, 100 complete control, read-out: Plant response rating, Johnsongrass
[23] = pre-emergence, Preemergence, scale 0 to 100 (0 no effect, 100 complete control), read-out: Plant response rating, Johnsongrass

Fc1cccc(Oc2ncc(Cl)cn2)c1-c1cc(C(F)F)no1 [Compound 144, 5-chloro-2-[2-[3-(difluoromethyl)-5-isoxazolyl]-3-fluorophenoxy]pyrimidine]
pest or weed control at 125 g/ha ([1]; Echinochloa crus-galli, post-emergence, 240 h, 125 g ai/ha, postemergence, 0 to 100 scale, 0 no effect, 100 complete control, read-out: Plant response rating, Barnyardgrass): 100%
pest or weed control at 31 g/ha ([1]; Echinochloa crus-galli, post-emergence, 240 h, Postemergence, 0 to 100 scale (0 no effect, 100 complete control), read-out: Plant response rating, Barnyardgrass): 30%
pest or weed control at 31 g/ha ([1]; Echinochloa crus-galli, pre-emergence, 240 h, Preemergence, 0 to 100 scale where 0 is no effect and 100 is complete control, read-out: Plant response rating, Barnyardgrass): 80%
Barnyardgrass plant response rating [1, 10]: 100
Corn plant response rating (crop injury, 0 = no effect, 100 = complete kill) at 125 g/ha [2, 11]: 90%
Corn plant response rating (crop injury, 0 = no effect, 100 = complete kill) at 31 g/ha [2, 12]: 30%
Foxtail, Giant plant response rating [3, 10]: 100
pest or weed control at 125 g/ha ([3]; Setaria faberi, post-emergence, 240 h, 125 g ai/ha, postemergence, 0 to 100 scale, 0 no effect, 100 complete control, read-out: Plant response rating, Foxtail, Giant): 100%
pest or weed control at 31 g/ha ([3]; Setaria faberi, post-emergence, 240 h, Postemergence, 0 to 100 scale (0 no effect, 100 complete control), read-out: Plant response rating, Foxtail, Giant): 80%
pest or weed control at 31 g/ha ([3]; Setaria faberi, pre-emergence, 240 h, Preemergence, 0 to 100 scale where 0 is no effect and 100 is complete control, read-out: Plant response rating, Foxtail, Giant): 100%
pest or weed control at 125 g/ha ([4]; Amaranthus retroflexus, post-emergence, 240 h, 125 g ai/ha, postemergence, 0 to 100 scale, 0 no effect, 100 complete control, read-out: Plant response rating, Pigweed): 100%
pest or weed control at 31 g/ha ([4]; Amaranthus retroflexus, post-emergence, 240 h, Postemergence, 0 to 100 scale (0 no effect, 100 complete control), read-out: Plant response rating, Pigweed): 100%
pest or weed control at 31 g/ha ([4]; Amaranthus retroflexus, pre-emergence, 240 h, Preemergence, 0 to 100 scale where 0 is no effect and 100 is complete control, read-out: Plant response rating, Pigweed): 100%
Pigweed plant response rating [4, 10]: 100
plant injury at 125 g/ha [5, 11]: 90%
plant injury at 31 g/ha [5, 12]: 30%
pest or weed control at 16 g/ha [6, 13]: 5%
pest or weed control at 31 g/ha [6, 13]: 5%
pest or weed control at 62 g/ha [6, 14]: 10%
pest or weed control at 125 g/ha [6, 14]: 15%
pest or weed control at 125 g/ha ([6]; pre-emergence, Preemergence, read-out: Plant response rating (scale 0 to 100), Barnyardgrass): 100%
pest or weed control at 16 g/ha [6, 15]: 70%
pest or weed control at 31 g/ha [6, 15]: 80%
pest or weed control at 62 g/ha [6, 15]: 100%
pest or weed control at 16 g/ha [7, 16]: 5%
pest or weed control at 31 g/ha [7, 16]: 15%
pest or weed control at 62 g/ha [7, 17]: 15%
pest or weed control at 125 g/ha [7, 17]: 75%
pest or weed control at 125 g/ha ([7]; pre-emergence, Preemergence, read-out: Plant response rating (scale 0 to 100), Blackgrass): 95%
pest or weed control at 16 g/ha [7, 18]: 55%
pest or weed control at 31 g/ha [7, 18]: 95%
pest or weed control at 62 g/ha [7, 18]: 95%
pest or weed control at 16 g/ha [8, 19]: 5%
pest or weed control at 31 g/ha [8, 19]: 10%
pest or weed control at 62 g/ha [8, 20]: 25%
pest or weed control at 125 g/ha [8, 20]: 25%
pest or weed control at 125 g/ha ([8]; pre-emergence, Preemergence, read-out: Plant response rating (scale 0 to 100), Foxtail, Giant): 100%
pest or weed control at 16 g/ha [8, 21]: 100%
pest or weed control at 31 g/ha [8, 21]: 100%
pest or weed control at 62 g/ha [8, 21]: 100%
pest or weed control at 31 g/ha ([9]; post-emergence, Postemergence, scale 0 to 100 (0 no effect, 100 complete control), read-out: Johnsongrass plant response rating): 10%
pest or weed control at 62 g/ha [9, 22]: 10%
pest or weed control at 125 g/ha [9, 22]: 50%
pest or weed control at 125 g/ha ([9]; pre-emergence, Preemergence, read-out: Plant response rating (scale 0 to 100), Johnsongrass): 100%
pest or weed control at 16 g/ha ([9]; pre-emergence, Preemergence, 16 g ai/ha, scale 0 to 100 (0 no effect, 100 complete control), read-out: Plant response rating, Johnsongrass): 20%
pest or weed control at 31 g/ha [9, 23]: 75%
pest or weed control at 62 g/ha [9, 23]: 100%
